Data on 11 molecules can be found in ChEMBL document CHEMBL1201862, “PubChem BioAssay data set” (2004).

Activity calls are given as the source filed them.

One experiment has as its target Nonstructural protein 1 (Influenza A virus, UniProt Q194T2). The format is functional, Influenza A virus (A/California/07/2009(H1N1)).
Experiment [1] addresses T1, Apoptotic protease-activating factor 1 (Homo sapiens, UniProt O14727).
T1 sequence (O14727 whole entry): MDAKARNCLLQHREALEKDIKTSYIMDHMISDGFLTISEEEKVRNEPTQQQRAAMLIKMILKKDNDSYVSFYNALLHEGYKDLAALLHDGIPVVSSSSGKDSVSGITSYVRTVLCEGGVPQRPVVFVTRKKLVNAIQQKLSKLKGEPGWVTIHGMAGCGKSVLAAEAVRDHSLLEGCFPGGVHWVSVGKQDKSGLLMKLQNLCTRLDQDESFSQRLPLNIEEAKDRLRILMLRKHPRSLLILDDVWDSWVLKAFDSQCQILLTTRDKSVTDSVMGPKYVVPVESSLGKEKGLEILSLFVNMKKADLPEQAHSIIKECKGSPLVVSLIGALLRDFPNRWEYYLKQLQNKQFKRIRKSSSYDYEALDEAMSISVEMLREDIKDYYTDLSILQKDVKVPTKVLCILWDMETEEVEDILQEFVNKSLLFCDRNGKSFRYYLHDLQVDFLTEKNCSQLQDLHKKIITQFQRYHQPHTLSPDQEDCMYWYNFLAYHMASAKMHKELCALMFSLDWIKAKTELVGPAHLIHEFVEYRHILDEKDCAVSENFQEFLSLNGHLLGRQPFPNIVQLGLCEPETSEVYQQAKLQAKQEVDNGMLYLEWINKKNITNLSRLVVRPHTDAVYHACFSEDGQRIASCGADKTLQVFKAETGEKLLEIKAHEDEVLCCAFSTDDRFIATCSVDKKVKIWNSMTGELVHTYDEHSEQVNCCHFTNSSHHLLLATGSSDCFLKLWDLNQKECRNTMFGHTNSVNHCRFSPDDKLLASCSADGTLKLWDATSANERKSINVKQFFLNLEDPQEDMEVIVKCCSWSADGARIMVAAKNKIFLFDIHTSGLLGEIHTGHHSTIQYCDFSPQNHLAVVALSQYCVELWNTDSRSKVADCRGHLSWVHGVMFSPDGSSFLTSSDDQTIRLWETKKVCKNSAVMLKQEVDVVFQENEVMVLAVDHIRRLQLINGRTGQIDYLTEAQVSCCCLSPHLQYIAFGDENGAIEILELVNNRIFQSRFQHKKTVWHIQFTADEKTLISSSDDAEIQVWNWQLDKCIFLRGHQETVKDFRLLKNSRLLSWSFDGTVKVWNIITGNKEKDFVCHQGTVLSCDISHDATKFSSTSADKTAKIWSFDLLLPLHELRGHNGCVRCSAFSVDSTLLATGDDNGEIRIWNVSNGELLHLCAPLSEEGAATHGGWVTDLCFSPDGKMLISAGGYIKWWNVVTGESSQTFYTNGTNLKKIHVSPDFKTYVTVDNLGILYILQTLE
It is filed as functional.

The target of experiment [2] is T2, Long-chain-fatty-acid--AMP ligase FadD28 (Mycobacterium tuberculosis, UniProt P9WQ59).
T2 sequence (P9WQ59 whole entry): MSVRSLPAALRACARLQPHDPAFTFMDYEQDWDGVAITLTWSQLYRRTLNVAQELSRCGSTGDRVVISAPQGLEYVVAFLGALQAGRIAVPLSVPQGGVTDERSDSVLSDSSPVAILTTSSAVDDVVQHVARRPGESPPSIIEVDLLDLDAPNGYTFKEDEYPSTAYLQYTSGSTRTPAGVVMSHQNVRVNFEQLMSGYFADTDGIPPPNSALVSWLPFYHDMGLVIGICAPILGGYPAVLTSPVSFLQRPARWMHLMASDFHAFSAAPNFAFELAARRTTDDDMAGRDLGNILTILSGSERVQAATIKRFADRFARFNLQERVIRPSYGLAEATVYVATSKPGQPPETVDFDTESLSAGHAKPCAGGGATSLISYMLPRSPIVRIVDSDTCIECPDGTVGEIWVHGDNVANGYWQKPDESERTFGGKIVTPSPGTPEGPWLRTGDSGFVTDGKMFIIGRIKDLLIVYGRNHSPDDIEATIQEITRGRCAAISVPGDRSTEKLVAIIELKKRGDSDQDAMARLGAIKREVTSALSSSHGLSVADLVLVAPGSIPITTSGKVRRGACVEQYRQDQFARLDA
The experiment is described as follows: Fluorescence polarization aasay to screen for inhibitors that compete for the binding of FadD28 to a bisubstrate Measured in Biochemical System Using Plate Reader - 2147-01_Inhibitor_Dose_CherryPick_Activity. The format is functional, Mycobacterium tuberculosis H37Rv. In general terms: Fluorescence polarisation rises when a labelled molecule tumbles more slowly, as on binding a larger partner.

The target in a further experiment is T3, Caspase-6 (Homo sapiens, UniProt P55212).
T3 sequence (P55212 whole entry): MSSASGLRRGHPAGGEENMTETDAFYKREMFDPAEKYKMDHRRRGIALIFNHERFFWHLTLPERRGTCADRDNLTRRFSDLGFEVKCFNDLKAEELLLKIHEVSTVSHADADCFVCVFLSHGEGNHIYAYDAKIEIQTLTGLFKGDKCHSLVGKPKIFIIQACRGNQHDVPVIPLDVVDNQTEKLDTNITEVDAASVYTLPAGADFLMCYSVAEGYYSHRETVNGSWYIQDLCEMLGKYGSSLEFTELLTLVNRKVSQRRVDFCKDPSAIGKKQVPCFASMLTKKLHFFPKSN
Put plainly: human caspase-6 inhibitors, dose response, biochemical, VEID-R110 fluorescence, cherry-pick (AID 720632).

Experiment [3] relates to Streptococcus sp. 'group A'. Put plainly: growth inhibition of control SK(-) GAS strain, dose response, counter-screen for streptokinase expression inhibitor project, luminescence, kanamycin, BacTiterGlo, confirmation (AID 1900). The format is functional, organism-based. (The purpose of a counterscreen is to sort out artefacts and off-target activity.)
A further experiment deals with T4, Streptokinase A (Streptococcus pyogenes serotype M1, UniProt P10520).
T4 sequence (P10520 whole entry): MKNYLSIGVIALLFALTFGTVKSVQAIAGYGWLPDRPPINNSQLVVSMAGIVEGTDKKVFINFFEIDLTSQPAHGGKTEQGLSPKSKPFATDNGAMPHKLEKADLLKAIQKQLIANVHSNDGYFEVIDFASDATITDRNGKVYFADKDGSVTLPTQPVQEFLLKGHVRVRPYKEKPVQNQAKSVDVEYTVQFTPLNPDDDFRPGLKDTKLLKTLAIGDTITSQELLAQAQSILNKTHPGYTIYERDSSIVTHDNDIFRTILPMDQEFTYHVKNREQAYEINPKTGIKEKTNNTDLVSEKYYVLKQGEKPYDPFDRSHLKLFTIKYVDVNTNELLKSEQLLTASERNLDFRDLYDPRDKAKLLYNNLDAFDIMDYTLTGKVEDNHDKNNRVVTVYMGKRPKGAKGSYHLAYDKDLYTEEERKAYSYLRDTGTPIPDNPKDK
Put plainly: S. pyogenes streptokinase expression inhibitors, potency, dose response, plasminogen activation absorbance, OD405 (AID 1914).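 Further: secreted streptokinase activity via plasminogen activation per viability signal from cell pellet.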 The format is functional, Streptococcus pyogenes M1 GAS.

For another experiment, the system named is Streptococcus. Put plainly: Group A Streptococcus viability loss, dose response, counter-screen for streptokinase expression inhibitor project, luminescence, BacTiterGlo (AID 1915).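 Further: potency for reduction of bacterial viability or growth.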 It is filed as functional, organism-based.
Experiment [4] addresses T5, Microphthalmia-associated transcription factor (Homo sapiens, UniProt O75030).
T5 sequence (O75030 whole entry): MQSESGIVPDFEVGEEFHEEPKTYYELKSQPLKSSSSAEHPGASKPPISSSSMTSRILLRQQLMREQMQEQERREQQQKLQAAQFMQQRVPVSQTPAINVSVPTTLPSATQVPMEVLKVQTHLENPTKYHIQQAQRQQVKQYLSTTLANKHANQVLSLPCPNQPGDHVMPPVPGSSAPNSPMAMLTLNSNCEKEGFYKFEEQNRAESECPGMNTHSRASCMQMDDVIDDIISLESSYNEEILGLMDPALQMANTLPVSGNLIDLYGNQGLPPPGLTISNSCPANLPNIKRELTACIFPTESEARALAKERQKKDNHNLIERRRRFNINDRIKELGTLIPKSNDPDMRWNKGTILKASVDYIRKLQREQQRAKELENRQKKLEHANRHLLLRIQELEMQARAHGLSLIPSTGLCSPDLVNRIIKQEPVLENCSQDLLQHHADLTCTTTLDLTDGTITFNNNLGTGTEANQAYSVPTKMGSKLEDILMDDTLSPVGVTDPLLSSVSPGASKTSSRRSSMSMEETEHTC
The experiment is described as follows: TRPM1 promoter luciferase signal decrease, dose response, MITF inhibitor project, cell-based, SK-MEL-5, cherry-picked, set 3 (AID 493073).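 Further: SK-MEL-5 melanoma cells with luciferase driven by the MITF target TRPM1 promoter.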 The format is functional.

The test system of another experiment is INS1. Put plainly: beta cell apoptosis inhibitors, cytokine rescue, dose response, luminescence, retest (AID 449756).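 Further: cell death triggered by IL-1 beta plus TNF-alpha plus IFN-gamma mixture; protective hits raise ATP signal compared with cytokine alone wells.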 The format is functional, cell-based. Particulars: Rattus norvegicus.
Experiment [5] can be described thus: Luminescence Cell-Based Dose Retest to Confirm Inhibitors of Cancer Stem Cells. [Related pubchem assays (depositor defined):AID2717, AID2721]. It is filed as functional. Particulars: Homo sapiens.
The target in experiment [6] is Disintegrin and metalloproteinase domain-containing protein 17 (Homo sapiens, UniProt P78536). The experiment is described as follows: ADAM17 protease inhibitors, dose response, counter-screen for ADAM10 exosite inhibitor project, biochemical, quenched FRET substrate (AID 743253).
The target of experiment [7] is T6, Ubiquitin-conjugating enzyme E2 N (Homo sapiens, UniProt P61088).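 Further: Dose-response confirmation in a TR-FRET assay detecting UBC13-driven polyubiquitin chain formation, inhibition measured.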
T6 sequence (P61088 whole entry): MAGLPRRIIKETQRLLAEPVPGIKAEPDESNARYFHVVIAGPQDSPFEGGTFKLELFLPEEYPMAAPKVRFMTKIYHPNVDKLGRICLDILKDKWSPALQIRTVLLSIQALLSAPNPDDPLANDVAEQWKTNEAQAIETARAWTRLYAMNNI
It is filed as functional.

The target of experiment [8] is T7, DNA repair and recombination protein RAD54-like (Homo sapiens, UniProt Q92698).
T7 sequence (Q92698 whole entry): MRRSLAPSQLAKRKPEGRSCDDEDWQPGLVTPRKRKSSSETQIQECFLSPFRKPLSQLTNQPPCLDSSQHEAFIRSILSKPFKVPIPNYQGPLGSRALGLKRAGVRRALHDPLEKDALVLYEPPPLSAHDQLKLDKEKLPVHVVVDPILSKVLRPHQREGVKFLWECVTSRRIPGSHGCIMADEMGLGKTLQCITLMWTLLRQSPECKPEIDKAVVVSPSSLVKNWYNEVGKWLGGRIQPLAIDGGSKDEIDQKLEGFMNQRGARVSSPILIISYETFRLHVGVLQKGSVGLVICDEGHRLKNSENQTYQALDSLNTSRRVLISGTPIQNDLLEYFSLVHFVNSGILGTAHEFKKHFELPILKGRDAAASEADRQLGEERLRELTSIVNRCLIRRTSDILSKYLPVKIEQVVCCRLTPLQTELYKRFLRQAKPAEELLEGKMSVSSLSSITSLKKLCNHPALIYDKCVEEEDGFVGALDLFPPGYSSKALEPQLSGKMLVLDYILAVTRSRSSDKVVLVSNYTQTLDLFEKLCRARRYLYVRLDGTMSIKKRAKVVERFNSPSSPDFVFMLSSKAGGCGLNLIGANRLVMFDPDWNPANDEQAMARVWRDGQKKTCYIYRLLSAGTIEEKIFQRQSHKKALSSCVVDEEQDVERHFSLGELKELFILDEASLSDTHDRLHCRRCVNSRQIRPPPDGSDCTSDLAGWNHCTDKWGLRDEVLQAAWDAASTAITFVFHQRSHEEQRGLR
The experiment is described as follows: inhibitors of human RAD54 branch migration, confirmation, biochemical, fluorescence, cherry-picked samples, dose series (AID 651657). It is filed as functional.

Chain of Disintegrin and metalloproteinase domain-containing protein 17 (P78536 whole entry, the tested form may be a part): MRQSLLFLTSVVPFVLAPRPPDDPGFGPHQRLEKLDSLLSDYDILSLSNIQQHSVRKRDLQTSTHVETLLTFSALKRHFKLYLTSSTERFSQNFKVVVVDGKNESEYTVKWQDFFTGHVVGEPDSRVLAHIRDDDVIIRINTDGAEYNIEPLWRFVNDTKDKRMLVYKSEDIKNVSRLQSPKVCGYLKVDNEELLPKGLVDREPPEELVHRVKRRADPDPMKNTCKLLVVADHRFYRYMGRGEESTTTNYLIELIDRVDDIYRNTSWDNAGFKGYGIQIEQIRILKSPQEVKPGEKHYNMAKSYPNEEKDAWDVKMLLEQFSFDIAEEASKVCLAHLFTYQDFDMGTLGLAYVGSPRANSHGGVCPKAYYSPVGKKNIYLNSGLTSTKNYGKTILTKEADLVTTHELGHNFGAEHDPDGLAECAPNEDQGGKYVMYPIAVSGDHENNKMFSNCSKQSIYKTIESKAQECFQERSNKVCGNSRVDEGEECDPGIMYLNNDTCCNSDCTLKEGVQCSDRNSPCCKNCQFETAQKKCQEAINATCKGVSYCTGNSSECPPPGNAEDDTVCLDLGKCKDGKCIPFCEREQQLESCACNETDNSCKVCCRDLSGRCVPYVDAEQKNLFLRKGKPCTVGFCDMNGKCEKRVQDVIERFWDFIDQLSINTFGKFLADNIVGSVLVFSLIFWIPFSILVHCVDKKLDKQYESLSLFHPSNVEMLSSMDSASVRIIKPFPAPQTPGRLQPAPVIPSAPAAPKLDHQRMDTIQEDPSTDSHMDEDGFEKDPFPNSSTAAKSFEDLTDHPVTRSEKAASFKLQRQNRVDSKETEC
Chain of Nonstructural protein 1 (Q194T2 whole entry): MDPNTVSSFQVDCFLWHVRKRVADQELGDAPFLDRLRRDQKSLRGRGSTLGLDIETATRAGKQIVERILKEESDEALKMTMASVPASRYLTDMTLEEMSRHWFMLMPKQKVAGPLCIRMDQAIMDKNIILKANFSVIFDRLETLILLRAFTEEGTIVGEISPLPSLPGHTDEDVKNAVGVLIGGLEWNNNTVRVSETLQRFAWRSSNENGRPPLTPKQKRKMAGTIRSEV

Regarding `O=C1C(NS(=O)(=O)c2ccc(Cl)cc2)=C(N2CCCCC2)C(=O)c2ccccc21`, the IC50 was 11.4 µM (active) on Nonstructural protein 1 and 30.5 µM (active) in experiment [1].

Take `Cc1nc2c(C(=O)NCCC3=CCCCC3)cnn2c(O)c1Cl`: the AC50 in experiment [2] was > 100 µM (inactive). Still for that read-out and setting: under `O=C(NN1C(=O)/C(=C/c2cccc(O)c2)SC1=S)c1ccccc1O` stands 66.2 µM (active). With `COc1cc(SC)ccc1C(=O)OC(C)C(=O)NC1CCCC1` (centres undefined), the AC50 at Caspase-6 was 24.6 µM (active). As for `CCCCCn1cc[n+](C2=C([N-]S(=O)(=O)c3ccccc3)C(=O)c3ccccc3C2=O)c1`, the results for the EC50 (in [3]; at Streptokinase A; in the experiment with Streptococcus) were 1.15 µM (active), 3.69 µM (active) and 13.3 µM (active), respectively. Also, the AC50 is 5.9 µM (active) in experiment [4] and 4.7 µM (active) in the experiment on INS1. Besides, the IC50 in experiment [1] is 13.8 µM (active).

In the case of `COc1ccc(/C=C2\SC(=O)N(CC(=O)Nc3cccnc3)C2=O)cc1OC`, in [2], the AC50 is 32 µM (inactive). As to `O=C1CC(N(CCc2ccccc2)C(=S)Nc2cc(Cl)ccc2Cl)C(=O)N1c1c(Cl)cccc1Cl` (centres undefined), in experiment [5], the AC50 was 1.61 µM (active). In [6], the IC50 is > 69.5 µM (inactive). Consider `CC1CCCCN1CCNC(=O)c1cc2c(=O)n(C)c3ccccc3c2n1C` (centres undefined), for which the IC50 in experiment [7] was > 20 µM (inactive). Besides, the AC50 in experiment [8] was 33 µM (active). `CCCCN(C)CCN=C(S)Nc1ccc2nc(N3CCN(CC)CC3)cc(C)c2c1`: the AC50 in experiment [8] is 16.2 µM (active). For the molecule `O=C(O)[C@@H]1[C@@H](CO)[C@@H]2Cn3c(ccc(/C=C/c4ccccc4)c3=O)[C@@H]2N1Cc1ccc2c(c1)OCO2`, the AC50 on Caspase-6 is 41.3 µM (active). Consider `CC(N)C(=O)NC(C(=O)NC(C)C(=O)Nc1cccc2ccccc12)C(C)C` (centres undefined), for which the AC50 on Caspase-6 is 10.7 µM (active).

As a reminder, the IC50 is the concentration that inhibits the measured activity by half. The term AC50 denotes the midpoint of the concentration-response curve, whichever way the signal moves. Broadly, the EC50 is the concentration that produces a half-maximal response.
